Assay results published in patent US8653134B2, “Hydroxyphenol derivatives, processes for the preparation thereof, pharmaceutical compositions them, and therapeutic uses thereof” (Merck Patent GmbH, priority 2005, dated 2014).

Key:
[1] = target: T1, chimeric protein PPARγ-Gal4 (Homo sapiens, UniProt P37231); experiment: PPARγ-Gal4 transactivation test (luciferase reporter) in cotransfected CV-1 cells; type: cell-based
T1 construct: expressed in transfected cells; host or cells: CV-1 cells (monkey kidney cells)
T1 sequence (P37231 238-503 limits assumed): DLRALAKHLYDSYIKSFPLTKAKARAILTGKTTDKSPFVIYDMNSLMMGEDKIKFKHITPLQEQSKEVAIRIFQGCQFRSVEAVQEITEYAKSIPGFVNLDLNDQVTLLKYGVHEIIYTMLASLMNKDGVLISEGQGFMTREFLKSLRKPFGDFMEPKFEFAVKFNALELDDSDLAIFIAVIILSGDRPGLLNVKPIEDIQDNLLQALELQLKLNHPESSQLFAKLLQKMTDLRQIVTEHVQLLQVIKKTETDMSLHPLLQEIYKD
Description: The measurement of the PPAR activation was performed according to a technique described by Lehmann et al. (J. Biol. Chem., 270, (1995), 12953-12956). CV-1 cells (monkey kidney cells) are cotransfected with an expression vector for the chimeric protein PPARγ-Gal4 and with a “reporter” plasmid that allows expression of the luciferase gene placed under the control of a promoter comprising Gal4 response elements. The cells are seeded in 96-well microplates and cotransfected using a commercial reagent with the reporter plasmid (pG5-tk-pGL3) and the expression vector for the chimeric protein (PPARγ-Gal4). After incubation for 4 hours, whole culture medium (comprising 10% foetal calf serum) is added to the wells. After 24 hours, the medium is removed and replaced with whole medium comprising the test products. The products are left in contact with the cells for 18 hours. The cells are then lysed and the luciferase activity is measured using a luminometer. A PPARγ activation factor can then be calculated by means of the activation of the expression of the reporter gene induced by the product (relative to the control cells that have received no product). In the absence of the PPARγ ligand binding domain (vector expressing Gal4 alone), the luciferase activity measured in the presence of an agonist is zero. The transactivation test using the expression of a chimeric protein Gal-4-PPARγ makes it possible to determine also whether an agonist functions as a “full” agonist or as a “partial” agonist in this system. An agonist is “partial” in this system if it induces a weaker response, i.e. it has lower efficacy, than rosiglitazone, which is a “full” agonist. In concrete terms, in our system, the transactivation obtained at the plateau with a partial agonist will be between 20% and 50% of the maximum response (efficacy) at the plateau of rosiglitazone.

Row | Structure (SMILES) | melting point | Concentration to reach the maximum stimulation of the PPARγ chimeric protein ([1]; CV-1 cells, Gal-4-PPARγ transactivation) | Emax ([1]; transactivation at the plateau as % of the maximum response (efficacy) of rosiglitazone, CV-1 cells, read-out: Maximum stimulation of the PPARγ chimeric protein obtained with rosiglitazone) | Activation factor of the chimeric protein PPARγ-Gal4 ([1]; concentration 10 μM, CV-1 cells (monkey kidney cells), 18 hours contact, relative to control cells without agonist (=1))
1 | CCCCCOc1cc2c(cc1OCc1cccc(C(=O)O)c1)C(=O)CC2 [Example 4, 3-(3-Oxo-6-pentyloxyindan-5-yloxymethyl)benzoic Acid] | 190 °C | 12.5 µM | 28% | –
2 | CCCCCCOc1cc2c(cc1OCCCC(=O)O)C(=O)CC2 [Example 7, 4-(6-hexyloxy-3-oxoindan-5-yloxy)butanoic acid] | – | – | – | 9.10
